# Assays:
# Type in all cases: in vivo
# [1] = system: Echinochloa crusgalli, Scirpus juncoides and Bidens tripartita L. collected from Heilongjiang Province of China; assay: resistance tests of the collected rice field weeds; settings: seeds collected from Heilongjiang Province of China
# From the text: Note: The seeds of Echinochloa crusgalli, Scirpus juncoides and Bidens tripartita L. were collected from Heilongjiang Province of China.
# [2] = system: Alopecurus japonicus; assay: weeding effect in post-emergence stage
# Method in brief: (§1)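 Potted weeds were sown, covered with 0.5-2 cm soil and grown in a greenhouse, then sprayed at the 2-3 leaf stage (2 weeks after sowing) via spray tower; compounds in acetone with Tween 80 and 1.5 liter/ha methyl oleate concentrate; doses 500-7.5 g a.i./ha. Fresh-weight control scored on 0-5 levels after 3 weeks; triplicate means.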
# [3] = system: Beckmannia syzigachne; assay: weeding effect in post-emergence stage
# Method in brief: as §1
# [4] = system: Conyza japonica; assay: weeding effect in post-emergence stage
# Method in brief: as §1
# [5] = system: Rorippa indica; assay: weeding effect in post-emergence stage
# Method in brief: as §1
smiles,measurement,setting,value
CCOC(=O)c1cnn(C)c1S(=O)(=O)NC(=O)Nc1nc(OC)cc(OC)n1 [Pyrazosulfuron-ethyl],response of the weeds to the common doses,[1],resistant
CCOC(=O)C1(C2CC2)CC(c2cc(-n3c(=O)cc(C(F)(F)F)n(C)c3=O)c(F)cc2Cl)=NO1 (racemic) [Compound 119],"weeding effect in post-emergence stage, Alopecurus japonicus (activity level)",[2]; dose 15 g a.i./ha,5 (Level 5: growth control rate is above 85%)
same,"weeding effect in post-emergence stage, Alopecurus japonicus (activity level)",[2]; dose 125 g a.i./ha,5 (Level 5: growth control rate is above 85%)
same,"weeding effect in post-emergence stage, Beckmannia syzigachne (activity level)",[3]; dose 15 g a.i./ha,5 (Level 5: growth control rate is above 85%)
same,"weeding effect in post-emergence stage, Beckmannia syzigachne (activity level)",[3]; dose 125 g a.i./ha,5 (Level 5: growth control rate is above 85%)
same,"weeding effect in post-emergence stage, Conyza japonica (activity level)",[4]; dose 15 g a.i./ha,5 (Level 5: growth control rate is above 85%)
same,"weeding effect in post-emergence stage, Conyza japonica (activity level)",[4]; dose 125 g a.i./ha,5 (Level 5: growth control rate is above 85%)
same,"weeding effect in post-emergence stage, Rorippa indica (activity level)",[5]; dose 15 g a.i./ha,5 (Level 5: growth control rate is above 85%)
same,"weeding effect in post-emergence stage, Rorippa indica (activity level)",[5]; dose 125 g a.i./ha,5 (Level 5: growth control rate is above 85%)
CCOC(=O)[C@@]1(CO)CC(c2cc(-n3c(=O)cc(C(F)(F)F)n(C)c3=O)c(F)cc2Cl)=NO1 [142(S)],"weeding effect in post-emergence stage, Alopecurus japonicus (activity level)",[2]; dose 15 g a.i./ha,5 (Level 5: growth control rate is above 85%)
same,"weeding effect in post-emergence stage, Beckmannia syzigachne (activity level)",[3]; dose 15 g a.i./ha,5 (Level 5: growth control rate is above 85%)
same,"weeding effect in post-emergence stage, Conyza japonica (activity level)",[4]; dose 15 g a.i./ha,5 (Level 5: growth control rate is above 85%)
same,"weeding effect in post-emergence stage, Rorippa indica (activity level)",[5]; dose 15 g a.i./ha,5 (Level 5: growth control rate is above 85%)
CCCC1(C(=O)OCC)CC(c2cc(-n3c(=O)n(C)c(=S)n(C)c3=O)c(F)cc2Cl)=NO1 (racemic) [Compound 4],"weeding effect in post-emergence stage, Alopecurus japonicus (activity level)",[2]; dose 15 g a.i./ha,5 (Level 5: growth control rate is above 85%)
same,"weeding effect in post-emergence stage, Alopecurus japonicus (activity level)",[2]; dose 125 g a.i./ha,5 (Level 5: growth control rate is above 85%)
same,"weeding effect in post-emergence stage, Beckmannia syzigachne (activity level)",[3]; dose 15 g a.i./ha,4 (Level 4: growth control rate is greater than or equal to 60% and less than 85%)
same,"weeding effect in post-emergence stage, Beckmannia syzigachne (activity level)",[3]; dose 125 g a.i./ha,5 (Level 5: growth control rate is above 85%)
same,"weeding effect in post-emergence stage, Conyza japonica (activity level)",[4]; dose 15 g a.i./ha,4 (Level 4: growth control rate is greater than or equal to 60% and less than 85%)
same,"weeding effect in post-emergence stage, Conyza japonica (activity level)",[4]; dose 125 g a.i./ha,5 (Level 5: growth control rate is above 85%)
same,"weeding effect in post-emergence stage, Rorippa indica (activity level)",[5]; dose 15 g a.i./ha,5 (Level 5: growth control rate is above 85%)
same,"weeding effect in post-emergence stage, Rorippa indica (activity level)",[5]; dose 125 g a.i./ha,5 (Level 5: growth control rate is above 85%)
CCOC(=O)C1(CC)CC(c2cc(-n3c(=S)cc(C(F)(F)F)n(C)c3=O)c(F)cc2Cl)=NO1 (racemic) [Compound 228],"weeding effect in post-emergence stage, Alopecurus japonicus (activity level)",[2]; dose 15 g a.i./ha,5 (Level 5: growth control rate is above 85%)
same,"weeding effect in post-emergence stage, Alopecurus japonicus (activity level)",[2]; dose 125 g a.i./ha,5 (Level 5: growth control rate is above 85%)
same,"weeding effect in post-emergence stage, Beckmannia syzigachne (activity level)",[3]; dose 15 g a.i./ha,4 (Level 4: growth control rate is greater than or equal to 60% and less than 85%)
same,"weeding effect in post-emergence stage, Beckmannia syzigachne (activity level)",[3]; dose 125 g a.i./ha,5 (Level 5: growth control rate is above 85%)
same,"weeding effect in post-emergence stage, Conyza japonica (activity level)",[4]; dose 15 g a.i./ha,5 (Level 5: growth control rate is above 85%)
same,"weeding effect in post-emergence stage, Conyza japonica (activity level)",[4]; dose 125 g a.i./ha,5 (Level 5: growth control rate is above 85%)
same,"weeding effect in post-emergence stage, Rorippa indica (activity level)",[5]; dose 15 g a.i./ha,5 (Level 5: growth control rate is above 85%)
same,"weeding effect in post-emergence stage, Rorippa indica (activity level)",[5]; dose 125 g a.i./ha,5 (Level 5: growth control rate is above 85%)
Cn1c(=S)n(C)c(=O)n(-c2cc(C3=NOC(C)(C(=O)OCC4CC4)C3)c(Cl)cc2F)c1=O (stereo not shown) [Compound 1-84],"weeding effect in post-emergence stage, Alopecurus japonicus (activity level)",[2]; dose 15 g a.i./ha,5 (Level 5: growth control rate is above 85%)
same,"weeding effect in post-emergence stage, Beckmannia syzigachne (activity level)",[3]; dose 15 g a.i./ha,5 (Level 5: growth control rate is above 85%)
same,"weeding effect in post-emergence stage, Conyza japonica (activity level)",[4]; dose 15 g a.i./ha,5 (Level 5: growth control rate is above 85%)
same,"weeding effect in post-emergence stage, Rorippa indica (activity level)",[5]; dose 15 g a.i./ha,5 (Level 5: growth control rate is above 85%)
CCOC(=O)C1(C(C)C)CC(c2cc(-n3c(=O)n(C)c(=S)n(C)c3=O)c(F)cc2Cl)=NO1 (racemic) [Compound 5],"weeding effect in post-emergence stage, Alopecurus japonicus (activity level)",[2]; dose 15 g a.i./ha,5 (Level 5: growth control rate is above 85%)
same,"weeding effect in post-emergence stage, Alopecurus japonicus (activity level)",[2]; dose 125 g a.i./ha,5 (Level 5: growth control rate is above 85%)
same,"weeding effect in post-emergence stage, Beckmannia syzigachne (activity level)",[3]; dose 15 g a.i./ha,4 (Level 4: growth control rate is greater than or equal to 60% and less than 85%)
same,"weeding effect in post-emergence stage, Beckmannia syzigachne (activity level)",[3]; dose 125 g a.i./ha,5 (Level 5: growth control rate is above 85%)
same,"weeding effect in post-emergence stage, Conyza japonica (activity level)",[4]; dose 15 g a.i./ha,4 (Level 4: growth control rate is greater than or equal to 60% and less than 85%)
same,"weeding effect in post-emergence stage, Conyza japonica (activity level)",[4]; dose 125 g a.i./ha,5 (Level 5: growth control rate is above 85%)
same,"weeding effect in post-emergence stage, Rorippa indica (activity level)",[5]; dose 15 g a.i./ha,5 (Level 5: growth control rate is above 85%)
same,"weeding effect in post-emergence stage, Rorippa indica (activity level)",[5]; dose 125 g a.i./ha,5 (Level 5: growth control rate is above 85%)
CCOC(=O)C1(CC)CC(c2cc(-n3c(=O)cc(C(F)(F)F)n(C)c3=O)c(F)cc2Cl)=NO1 (racemic) [Compound 105],"weeding effect in post-emergence stage, Alopecurus japonicus (activity level)",[2]; dose 15 g a.i./ha,5 (Level 5: growth control rate is above 85%)
same,"weeding effect in post-emergence stage, Alopecurus japonicus (activity level)",[2]; dose 125 g a.i./ha,5 (Level 5: growth control rate is above 85%)
same,"weeding effect in post-emergence stage, Beckmannia syzigachne (activity level)",[3]; dose 15 g a.i./ha,5 (Level 5: growth control rate is above 85%)
same,"weeding effect in post-emergence stage, Beckmannia syzigachne (activity level)",[3]; dose 125 g a.i./ha,5 (Level 5: growth control rate is above 85%)
same,"weeding effect in post-emergence stage, Conyza japonica (activity level)",[4]; dose 15 g a.i./ha,5 (Level 5: growth control rate is above 85%)
same,"weeding effect in post-emergence stage, Conyza japonica (activity level)",[4]; dose 125 g a.i./ha,5 (Level 5: growth control rate is above 85%)
same,"weeding effect in post-emergence stage, Rorippa indica (activity level)",[5]; dose 15 g a.i./ha,5 (Level 5: growth control rate is above 85%)
same,"weeding effect in post-emergence stage, Rorippa indica (activity level)",[5]; dose 125 g a.i./ha,5 (Level 5: growth control rate is above 85%)
CCOC(=O)C1(C=O)CC(c2cc(-n3c(=O)cc(C(F)(F)F)n(C)c3=O)c(F)cc2Cl)=NO1 (racemic) [Compound 152],"weeding effect in post-emergence stage, Alopecurus japonicus (activity level)",[2]; dose 125 g a.i./ha,5 (Level 5: growth control rate is above 85%)
same,"weeding effect in post-emergence stage, Beckmannia syzigachne (activity level)",[3]; dose 125 g a.i./ha,5 (Level 5: growth control rate is above 85%)
same,"weeding effect in post-emergence stage, Conyza japonica (activity level)",[4]; dose 125 g a.i./ha,5 (Level 5: growth control rate is above 85%)
same,"weeding effect in post-emergence stage, Rorippa indica (activity level)",[5]; dose 125 g a.i./ha,5 (Level 5: growth control rate is above 85%)
Cn1c(=S)n(C)c(=O)n(-c2cc(C3=NOC(C)(C(=O)OCC(F)(F)F)C3)c(Cl)cc2F)c1=O (stereo not shown) [Compound 1-87],"weeding effect in post-emergence stage, Alopecurus japonicus (activity level)",[2]; dose 15 g a.i./ha,5 (Level 5: growth control rate is above 85%)
same,"weeding effect in post-emergence stage, Beckmannia syzigachne (activity level)",[3]; dose 15 g a.i./ha,5 (Level 5: growth control rate is above 85%)
same,"weeding effect in post-emergence stage, Conyza japonica (activity level)",[4]; dose 15 g a.i./ha,5 (Level 5: growth control rate is above 85%)
same,"weeding effect in post-emergence stage, Rorippa indica (activity level)",[5]; dose 15 g a.i./ha,5 (Level 5: growth control rate is above 85%)
CCOC(=O)C1(C)CC(c2cc(-n3c(=O)n(CC)c(=S)n(CC)c3=O)c(F)cc2Cl)=NO1 (stereo not shown) [Compound 1-64],"weeding effect in post-emergence stage, Alopecurus japonicus (activity level)",[2]; dose 15 g a.i./ha,5 (Level 5: growth control rate is above 85%)
same,"weeding effect in post-emergence stage, Beckmannia syzigachne (activity level)",[3]; dose 15 g a.i./ha,5 (Level 5: growth control rate is above 85%)
same,"weeding effect in post-emergence stage, Conyza japonica (activity level)",[4]; dose 15 g a.i./ha,5 (Level 5: growth control rate is above 85%)
same,"weeding effect in post-emergence stage, Rorippa indica (activity level)",[5]; dose 15 g a.i./ha,5 (Level 5: growth control rate is above 85%)

# From patent US12509452B2, “Substituted-isoxazoline-containing aromatic compound, preparation method therefor, herbicidal composition and use thereof” (QINGDAO KINGAGROOT CHEMICAL COMPOUND CO., LTD., priority 2019, dated 2025)
